The results in this text go back to patent US5853721A, “Antibody to interleukin-12 receptor” (Hoffmann-La Roche Inc., priority 1995, dated 1998).

The subject of one experiment is IL-12 receptor. Put plainly: Steady state 125I-IL-12 binding to human cells (Scatchard).
The target in experiment [1] is T1, detergent solubilized IL-12R from Kit 225/K6 cells (Homo sapiens, UniProt P42701).
T1 construct: were solubilized with 8 mM CHAPS extraction buffer; endogenous in cells; host or cells: Kit 225/K6 cells, CHAPS extract
Put plainly: 125I-IL-12 binding to detergent solubilized IL-12R immunoprecipitated by immobilized 2*4E6. Particulars: proteins immunoprecipitated by immobilized 2*4E6 from solubilized K6 cell extracts; read-out: apparent affinity of 125I-IL-12, single site. Here is the method:
FIG. 8A: Kit 225/K6 cells (1.5×10^8 cells/ml) were solubilized with 8 mM CHAPS extraction buffer and the cell extract (0.2 ml) was immunoprecipitated for 16 hrs at 4° C. with mAb 2*4E6 immobilized on goat anti-mouse IgG coupled to agarose as discussed below. Following this incubation, the beads were pelleted, washed and resuspended in IP buffer containing ^125 I-IL-12 at concentrations ranging from 7 pM to […]. The IL-12R immobilized on the 2*4E6 coated beads was incubated with ^125 I-IL-12 for 2 hrs at RT and IL-12R bound radioactivity was determined in the presence of 50 nM unlabelled IL-12.
To confirm that the antibodies identified by the immunoprecipitation assay were specific for IL-12R, an immunoprecipitation/soluble IL-12R binding assay was developed. […] Following this incubation, the beads were pelleted, washed twice with IP buffer and the bound radioactivity determined in a gamma counter. Nonspecific binding was determined by inclusion of 70 nM unlabeled human IL-12 in the assay. Solubilized IL-12R binding data were analyzed according to the method of Scatchard, (Assn. N.Y. Acad. Sci., 51, 660 (1949)) by using the nonlinear regression programs EBDA and Ligand as adapted for the IBM PC by McPherson, from Elsevier-BIOSOFT.

In experiment [2] the target is T2, human recombinant IL-12 receptor β subunit (Homo sapiens, UniProt P42701).
T2 construct: expressed in transfected cells; host or cells: COS / COS-7 cells
Briefly: Equilibrium binding of 125I-IL-12 and 125I-2*4E6 to recombinant IL-12R expressed in COS cells. How it is done: COS cells (4-5×10^7) were transfected by electroporation with 25 μg of plasmid DNA expressing recombinant human IL-12R (Chua, et al., J. Immunol., 153:128 (1994)) in a BioRad Gene Pulser (250 μF, 250 volts) according to the manufacturer's protocol. The cells were plated in a 600 cm^2 culture plate, harvested after 72 hours by scraping, washed and resuspended in binding buffer. Transfected cells (8×10^4) were incubated with increasing concentrations of ^125 I-labeled 2*4E6 or IL-12 at room temperature for 2 hrs. Cell bound radioactivity was separated from free ^125 I-labeled 2*4E6 or IL-12 as described above.

Experiment [3] has as its target T3, IL-12R (Homo sapiens, UniProt P42701). Put plainly: Inhibition of 125I-2*4E6 binding to cells by unlabeled competitor. Particulars: PHA-activated PBMCs (FIG. 6). Also noted: endogenous in cells; host or cells: Kit 225/K6 cells. An excerpt:
The data are expressed as the amount of ^125 I-2*4E6 bound [CPM BOUND (Percent)] to the cells in the presence of the indicated concentrations of unlabeled antibody or IL-12 when compared with the total specific binding in the absence of unlabeled competitor.

The target in experiment [4] is T3, IL-12R. Put plainly: Steady state 125I-IL-12 binding to human cells (Scatchard). Also noted: human cells that naturally express IL-12R; endogenous in cells; receptor-negative PBMC, MRC-5, HL-60. To be noted: PHA-activated PBMCs, Kit-225 and Kit 225/K6 cells; third (low affinity) site.

With “IL-12: 75-kDa heterodimeric cytokine of disulfide-bonded 40-kDa and 35-kDa subunits”, the “IL-12 BINDING (KD, Sites/cell)” value in the experiment on IL-12 receptor (HL-60) is given as “none detectable”; in the experiment with IL-12 receptor (MRC-5), “none detectable”; in the experiment with IL-12 receptor (RAJI cells), “none detectable”; in the experiment with IL-12 receptor (non-activated human PBMC) it was “none detected”. For the same substance, the Kd in the experiment with IL-12 receptor (YT cells, 2 sites) is 0.109 nM; in experiment [1], 0.188 nM; in experiment [2] (rIL-12R β-expressing COS cells, read-out: apparent affinity of 125I-IL-12, single binding site) it was 2 to 6 nM; with IL-12R [4], 2 to 6 nM. In addition, in experiment [2] (rIL-12R-expressing COS cells), the 125I-IL-12 sites/cell result is given as “approximately 150,000 sites/cell”. Also, in the experiment with IL-12R [3], the “block of 125I-2*4E6 binding by unlabeled competitor” value is “does not block”.
